Laboratory results taken from patent US5039706A, “Antiinflammatory PLA2 inhibitors” (Du Pont Merck Pharmaceutical Company, priority 1989, dated 1991).
Counter-ions that a name gives are not always drawn.

System: inflammation induced by tetradecanoyl phorbol acetate (TPA)
Experiment: TPA inflammation inhibition test (mouse ear edema)
Assay type: in vivo, mice
Set-up: dose or concentration left out as unconfirmed
Conditions: topical, 4 h, TPA to right ear, edema measured four hours later, read-out: % Inhibition of Control Swelling
Description: One such model is the inflammation induced by tetradecanoyl phorbol acetate (TPA), modified from the method of Kuehl et al., Nature, 1977, 265, 170; and Van Arman, Clin. Pharmacol. Ther., 1974, 16, 900. The TPA model mimics many of the inflammatory changes which occur in human skin diseases such as psoriasis, since elevated levels of inflammatory arachidonic acid metabolites are found and an influx of polymorphonuclear leukocytes is observed. The test procedure used to evaluate the compounds of Formula (I) is as follows: the test compound […] is applied to both ears of mice in an appropriate vehicle, such as acetone, and then the inflammatory stimulus (TPA) is applied to the right ear. Four hours later, the edema is measured by removing standard size discs from the ears using a biopsy punch. A control group of animals receives TPA in vehicle applied to the right ear, and vehicle alone to the left ear. The weights of the ear discs are determined, and the suppression of swelling observed in animals treated with the test compound is determined.

For `CC1(C)C2CCC(CNCCC(N)c3ccc(F)cc3)C1C2` (single isomer, unassigned) [Example 11, 4-Fluoro-α-(2-[(1α,2α,5α-7,7-dimethylbicyclo[3.1.1]-heptanyl-2-methyl)amino]ethyl)benzenemethanamine Dihydrochloride], the inhibition in vivo was 45%.

`CC(C)c1ccc2c(c1)CCC1C(C)(CNCCC(N)c3ccc(F)cc3)CCCC21C` (stereo not drawn) [Example 1, α-(2-[1,4a-Dimethyl-7-(2-propyl)-1,2,3,4,4a,9,10,10a-octahydro-1-phenanthrenylmethylamino]ethyl)-4-fluorobenzenemethanamine Dihydrochloride] showed an inhibition in vivo of 89%.

`CCCCCCCCSCCCC(N)c1ccc(F)cc1` (stereo not drawn) [Example 5, 4-Fluoro-α-[3-(octylthio)propyl]benzenemethanamine Hydrochloride] was tested, and the inhibition in vivo was 46%.

`Cc1ccc(SCCCC(N)c2ccc(F)cc2)cc1` (stereo not drawn) [Example 7, 4-Fluoro-α-[3-(4-methylphenylthio)propyl]benzenemethanamine Hydrochloride] showed an inhibition in vivo of 22%.

In the case of `CC(C)c1ccc2c(c1)CCC1C(C)(CNCCCC(N)c3ccc(F)cc3)CCCC21C` (stereo not drawn) [Example 8, 4-Fluoro-α-(4-[1,4a-dimethyl-7-(2-propyl)-1,2,3,4,4a,9,10,10a-octahydro-1-phenanthrenylmethylamino]propyl)-benzenemethanamine Dihydrochloride], the inhibition in vivo is reported as 50%.

In the case of `NC(CCCSc1ccncc1)c1ccc(F)cc1` (stereo not drawn) [Example 10, 4-Fluoro-α-[3-(4-pyridinylthio)propyl]benzenemethanamine Dihydrochloride], the inhibition in vivo is reported as 24%.

For `CCCCCCCCNCCC(N)c1ccc(F)cc1` (stereo not drawn) [Example 21, 4-Fluoro-α-[2-(octylamino)ethyl]benzenemethanamine Dihydrochloride], the inhibition in vivo was 68%.

In the case of `COc1ccc(CNCCC(N)c2ccc(F)cc2)c2ccccc12` (stereo not drawn) [Example 22, 4-Fluoro-α-(2-[(4-methoxynaphthalenyl)methylamino]ethyl)benzenemethanamine Dihydrochloride], the inhibition in vivo is reported as 26%.

`CCCCCCCNCCC(N)c1ccc(F)cc1` (stereo not drawn) [Example 26, 4-Fluoro-α-[2-heptylamino)ethyl]benzenemethanamine Dihydrochloride] gave an inhibition in vivo of 52%.

`CCCCCCCCCCCNCCC(N)c1ccc(F)cc1` (stereo not drawn) [Example 27, 4-Fluoro-α-[2-undecylamino)ethyl]benzenemethanamine Dihydrochloride] was tested, and the inhibition in vivo was 51%.

`CCCCCCNCCC(N)c1ccc(F)cc1` (stereo not drawn) [Example 28, 4-Fluoro-α-[2-(hexylamino)ethyl]benzenemethanamine Dihydrochloride] gave an inhibition in vivo of 51%.

Work on `CC1(C)C2CCC(CNCCC(N)c3ccc(F)cc3)C1C2` (stereo not drawn) [Example 30, α-[2-(7,7-Dimethylbicyclo[3,1,1]heptyl-2-methylamino)ethyl]-4-fluoro-benzenemethanamine Dihydrochloride] yielded an inhibition in vivo of 34%.

For `CC(C)(C)CC(C)(C)NCCC(N)c1ccc(F)cc1` (stereo not drawn) [Example 34, 4-Fluoro-α-[2-(1,1,3,3-tetramethylbutyl)aminoethyl]benzenemethanamineDihydrochloride], the inhibition in vivo was 22%.

For `CC(NCCC(N)c1ccc(Cl)cc1)C12CC3CC(CC(C3)C1)C2` (stereo not drawn) [Example 36, 4-Chloro-α-(2-[1-(3-adamantyl)ethylamino]ethyl)benzenemethanamine Dihydrochloride], the inhibition in vivo was 48%.

`NC(CCCSc1ccccc1)c1ccc(F)cc1` (stereo not drawn) [Example 38, 4-Fluoro-α-(3-phenylthiopropyl)benzenemethanamine Hydrochloride] showed an inhibition in vivo of 30%.

With `CC(NCCC(N)c1ccc(F)cc1)C12CC3CC(CC(C3)C1)C2` (stereo not drawn) [Example 39, 4-Fluoro-α-(2-[1-(3-adamantyl)ethylamino]ethyl)benzenemethanamine Dihydrochloride] the inhibition in vivo was 50%.

With `NC(CCNCCc1cccc2ccccc12)c1ccc(F)cc1` (stereo not drawn) [Example 40, 4-Fluoro-α-(2-[2-(1-naphthalenyl)ethylamino]ethyl)benzenemethanamine Dihydrochloride] the inhibition in vivo was 29%.

`CCCCCCCCCCCCCCCCCCNCCC(N)c1ccc(F)cc1` (stereo not drawn) [Example 42, 4-Fluoro-α-[2-(octadecylamino)ethyl]benzenemethanamine Dihydrochloride] showed an inhibition in vivo of 22%.

`NC(CCCSc1ccc(F)cc1)c1ccc(F)cc1` (stereo not drawn) [Example 44, 4-Fluoro-α-[3-(4-Fluorophenylthio)propyl]benzenemethanamine Hydrochloride] showed an inhibition in vivo of 25%.

`CC(C)c1ccc2c(c1)CCC1C(C)(CNCCC(N)c3ccccc3)CCCC21C` (stereo not shown) [Example 56, Dihydrochloride] was tested, and the inhibition in vivo was 64%.

For `COc1ccc(C(N)CCNCC2(C)CCCC3(C)c4ccc(C(C)C)cc4CCC23)cc1` (stereo not drawn) [Example 57, α-(2-[1,4a-Dimethyl-7-(2-propyl)-1,2,3,4,4a,9,10,10a-octahydro-1-phenanthrenylmethylamino]ethyl)-4-methoxybenzenemethanamine Dihydrochloride], the inhibition in vivo was 60%.

For `CCCCCCC(C)OCCCC(N)c1ccc(F)cc1` (stereo not drawn) [Example 61, 4-Fluoro-α-[3-(2-octyloxy)propyl]benzenemethanamine], the inhibition in vivo was 25%.
